Results reported in patent US20230183179A1, “NOVEL CELL METABOLISM MODULATING COMPOUNDS AND USES THEREOF” (CRESCENTA BIOSCIENCES, priority 2020, published 2023).

Legend:
[1] = test system: differentiated 3T3-L1 mouse adipocyte cells; assay: Adipocyte glucose consumption in differentiated 3T3-L1 cells (colorimetric glucose assay of the medium); type: cell-based; details: 3T3-L1, 24 h, compound 10 μM, loss of glucose from culture medium, mean fold change (compound/DMSO)
Protocol: Activity of compounds on adipocyte glucose consumption was tested in differentiated 3T3-L1 mouse adipocyte cells. 3T3-L1 preadipocytes (ATCC) were routinely cultured in a growth medium composed of DMEM high-glucose (Sigma), 10% FBS (Gibco), 10 U/ml penicillin and 10 μg/ml streptomycin (P/S; Gibco). To induce adipogenic differentiation, a confluent layer of 3T3-L1 cells were incubated with the growth medium containing 2 μM rosiglitazone, 1 μM dexamethasone, 500 μM IBMX, and 1 μg/ml insulin (Sigma). Forty-eight (48) hours later (on day 2) and on days 4 and 6, medium of the cells was replaced with fresh medium containing 1 μg/ml insulin. On days 8 and 10, the medium was refreshed with regular growth medium and addition of insulin was omitted. On day 11, medium of the cells were 10 replaced with fresh medium containing either the indicated compounds (10 μM) or the vehicle in which the compounds were dissolved (DMSO). The final concentration of DMSO was 0.1% (v/v). Growth medium containing 0.1% DMSO was incubated in culture wells containing no cells and used as control. 24 hours later, medium was harvested and subjected to centrifugation at 10,000 g for 5 min. Glucose concentration in the supernatants was determined using a 15 colorimetric assay (Glucose Assay Kit I, Eton Biosciences). Glucose consumption in compound and vehicle treated cells was measured as loss of glucose from the culture medium and represented as mean fold change (compound/DMSO)±standard deviation (SD).

[2] = target: T1, His6 tagged human recombinant FABP4 (Homo sapiens, UniProt P15090); assay: FABP4 TR-FRET assay: displacement of fluorescent fatty acid BODIPY FL C12; details: inhibition of BODIPY FL C12 binding to His6-FABP4; 1.2 μL of 1.085 mM compound in DMSO per well; triplicates, mean percent inhibition
T1 construct: purchased Cayman Chemicals 10009549
Source text: Activity of compounds with FABP4 was profiled using a Terbium (Tb) based time resolved fluorescence energy transfer (TR-FRET) assay. The assay measures the compound mediated displacement of the fluorescent fatty acid BODIPY FL C12 (Thermo Fisher; catalog number D3822) from His6 tagged human recombinant FABP4 (His6-FABP4; Cayman Chemicals, catalog number 10009549) via recording the energy transfer from TB donor molecule on anti-His6-tag antibody to acceptor BODIPY moiety. Briefly, compounds and BODIPY FL C12 were prepared at a concentration of 1.085 mM and 4.2 μM, respectively, in DMSO. 1.2 μL of each compound or DMSO (vehicle control) and 1.2 μL of BODIPY FL C12 were added into the wells of a 384-well black polypropylene plate. His6-FABP4 and Tb anti-His6 antibody were prepared in the assay buffer (25 mM Tris/HCl, pH 7.4, 0.4 mg/ml γ-globulins, 0.010% NP-40, 1 mM DTT) at a concentration of 83 nM and 49.6 nM, respectively. The protein and antibody solutions were then mixed at a ratio of 34:7 (v/v) and incubated on ice for 30 minutes. The assay was initiated by adding 41 μL of the resulting protein/antibody solution into the wells containing the compounds and BODIPY FL C12. The plate was centrifuged and incubated at room temperature for 10 min. The TR-FRET signals were recorded using an EnVision Multilabel plate reader (PerkinElmer; TB excitation 320 nm, BODIPY FL C12 emission 520 nm; TB emission 615 nm). Relative fluorescence ratio (520 nm*10,000/615 nm) were used to calculate the compound mediated inhibition of BODIPY C12 FL fatty acid binding to FABP4. The compounds were tested in triplicates and the results were represented as mean percent inhibition (compound*100/DMSO)±standard deviation (SD). Glucose consumption and FABP4 inhibition is shown below in Table 3 below. The compounds showing no inhibition of activity in the TR-FRET assay are marked as N.A. N.D. stands for “not determined”.

T1 sequence (P15090 whole entry): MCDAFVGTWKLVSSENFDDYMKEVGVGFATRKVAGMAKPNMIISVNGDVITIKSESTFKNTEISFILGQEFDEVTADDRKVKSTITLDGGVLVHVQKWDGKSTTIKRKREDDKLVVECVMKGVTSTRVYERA

Structure (SMILES)	fold induction at 10 µM [1]	inhibition at 1085 µM (stock) [2] [%]
COc1ccc2nc(N(C)CC(=O)O)cc(-c3ccccc3)c2c1 [2-[(6-methoxy-4-phenylquinolin-2-yl)(methyl)amino]acetic acid]	1.12	101
CCCCCc1ccc2nc(OCC(=O)O)cc(-c3ccccc3)c2c1 [2-[(6-pentyl-4-phenylquinolin-2-yl)oxy]acetic acid]	1.05	55.1
CN(CC(=O)O)c1cc(-c2ccccc2)c2ccc(Br)cc2n1 [2-[(7-bromo-4-phenylquinolin-2-yl)(methyl)amino]acetic acid]	1.19	84.5
CCCCCCc1ccc2c(-c3ccccc3)cc(N(C)CC(=O)O)nc2c1 [2-[(7-hexyl-4-phenylquinolin-2-yl)(methyl)amino]acetic acid]	1.26	25.3
CCCc1ccc2nc(N(C)CC(=O)O)cc(-c3ccccc3)c2c1 [2-[methyl(4-phenyl-6-propylquinolin-2-yl)amino]acetic acid]	1.36	104
CCCCCCCCc1ccc2nc(N(C)CC(=O)O)cc(-c3ccccc3)c2c1 [2-[methyl(6-octyl-4-phenylquinolin-2-yl)amino]acetic acid]	1.52	99.3
CCCCC(=O)Nc1ccc2nc(N(C)CC(=O)O)cc(-c3ccccc3)c2c1 [2-[methyl(6-pentanamido-4-phenylquinolin-2-yl)amino]acetic acid]	0.98	28.7
CCCCCc1ccc2nc(N(C)CC(=O)O)cc(-c3ccccc3)c2c1 [2-[methyl(6-pentyl-4-phenylquinolin-2-yl)amino]acetic acid]	1.32	90.5
CN(CCc1ccc2nc(N(C)CC(=O)O)cc(-c3ccccc3)c2c1)c1ccccc1 [2-[methyl(6-{2-[methyl(phenyl)amino]ethyl}-4-phenylquinolin-2-yl)amino]acetic acid]	1.17	55.9
CN(CC(=O)O)c1cc(-c2ccccc2)c2cc(CCc3ccc4c(c3)CCCN4)ccc2n1 [2-[methyl({4-phenyl-6-[2-(1,2,3,4-tetrahydroquinolin-6-yl)ethyl]quinolin-2-yl})amino]acetic acid]	1.31	44.7
CN(CC(=O)O)c1cc(-c2ccccc2)c2cc(CCC3CNc4ccccc4N3)ccc2n1 (stereo not shown) [2-[methyl({4-phenyl-6-[2-(1,2,3,4-tetrahydroquinoxalin-2-yl)ethyl]quinolin-2-yl})amino]acetic acid]	1.26	14.9
CN(CC(=O)O)c1cc(-c2ccccc2)c2cc(CCN3CCCCC3)ccc2n1 [2-[methyl({4-phenyl-6-[2-(piperidin-1-yl)ethyl]quinolin-2-yl})amino]acetic acid]	0.96	< 0
CN(CC(=O)O)c1cc(-c2ccccc2)c2cc(CCc3cnccn3)ccc2n1 [2-[methyl({4-phenyl-6-[2-(pyrazin-2-yl)ethyl]quinolin-2-yl})amino]acetic acid]	1.28	4.98
CN(CC(=O)O)c1cc(-c2ccccc2)c2cc(CCc3cccnc3)ccc2n1 [2-[methyl({4-phenyl-6-[2-(pyridin-3-yl)ethyl]quinolin-2-yl})amino]acetic acid]	1.41	32
CN(CC(=O)O)c1cc(-c2ccccc2)c2cc(CCc3ccncc3)ccc2n1 [2-[methyl({4-phenyl-6-[2-(pyridin-4-yl)ethyl]quinolin-2-yl})amino]acetic acid]	1.26	< 0
CN(CC(=O)O)c1cc(-c2ccccc2)c2cc(CCc3ncccn3)ccc2n1 [2-[methyl({4-phenyl-6-[2-(pyrimidin-2-yl)ethyl]quinolin-2-yl})amino]acetic acid]	1.35	< 0
CN(CC(=O)O)c1cc(-c2ccccc2)c2cc(CCc3cncnc3)ccc2n1 [2-[methyl({4-phenyl-6-[2-(pyrimidin-5-yl)ethyl]quinolin-2-yl})amino]acetic acid]	1.22	13.2
CN(CC(=O)O)c1cc(-c2ccccc2)c2cc(CCc3ccc4ncccc4c3)ccc2n1 [2-[methyl({4-phenyl-6-[2-(quinolin-6-yl)ethyl]quinolin-2-yl})amino]acetic acid]	1.4	34.7
CN(CC(=O)O)c1cc(-c2ccccc2)c2cc(CCc3ccc4cccnc4c3)ccc2n1 [2-[methyl({4-phenyl-6-[2-(quinolin-7-yl)ethyl]quinolin-2-yl})amino]acetic acid]	1.25	43.5
CN(CC(=O)O)c1cc(-c2ccccc2)c2cc(CCc3cnc4ccccc4n3)ccc2n1 [2-[methyl({4-phenyl-6-[2-(quinoxalin-2-yl)ethyl]quinolin-2-yl})amino]acetic acid]	1.28	33.6
CN(CC(=O)O)c1cc(-c2ccccc2)c2cc(CCc3ccc4nccnc4c3)ccc2n1 [2-[methyl({4-phenyl-6-[2-(quinoxalin-6-yl)ethyl]quinolin-2-yl})amino]acetic acid]	1.33	33.6
Cc1ccccc1CCc1ccc2nc(N(C)CC(=O)O)cc(-c3ccccc3)c2c1 [2-[methyl({6-[2-(2-methylphenyl)ethyl]-4-phenylquinolin-2-yl})amino]acetic acid]	1.4	38.2
Cc1cccc(CCc2ccc3nc(N(C)CC(=O)O)cc(-c4ccccc4)c3c2)c1 [2-[methyl({6-[2-(3-methylphenyl)ethyl]-4-phenylquinolin-2-yl})amino]acetic acid]	1.53	50.2
CN(CC(=O)O)c1cc(-c2ccccc2)c2cc(CCN3CCOCC3)ccc2n1 [2-[methyl({6-[2-(morpholin-4-yl)ethyl]-4-phenylquinolin-2-yl})amino]acetic acid]	1.13	6.78
CN(CC(=O)O)c1cc(-c2ccncc2)c2cc(CCc3ccccn3)ccc2n1 [2-[methyl({6-[2-(pyridin-2-yl)ethyl]-4-(pyridin-4-yl)quinolin-2-yl})amino]acetic acid]	1.06	16.1
CN(CC(=O)O)c1cc(-c2ccncc2)c2cc(CCc3cccnc3)ccc2n1 [2-[methyl({6-[2-(pyridin-3-yl)ethyl]-4-(pyridin-4-yl)quinolin-2-yl})amino]acetic acid]	1.06	24.6
CN(CC(=O)NCC(=O)O)c1cc(-c2ccccc2)c2cc(Cl)ccc2n1 [2-{2-[(6-chloro-4-phenylquinolin-2-yl)(methyl)amino]acetamido}acetic acid]	1.08	103
CN(CC(=O)O)c1cc(-c2ccc(F)cc2)c2cc(-c3ccc(F)cc3)ccc2n1 [2-{[4,6-bis(4-fluorophenyl)quinolin-2-yl](methyl)amino}acetic acid]	1.28	42
CCCCCCc1ccc2nc(N(C)CC(=O)O)cc(N3CCC(F)(F)C3)c2c1 [2-{[4-(3,3-difluoropyrrolidin-1-yl)-6-hexylquinolin-2-yl](methyl)amino}acetic acid]	1.28	50.5
